Source: patent US20070134744A1, “Epothilone resistant cell lines” (priority 2000, published 2007)

Key:
tubulin in KB-31 cells = target: T1, tubulin in KB-31 cells (Homo sapiens, UniProt P07437); test: Cell-based tubulin polymerization assay; conditions: 2 hours, 0-1000 nM
T1 construct: decrease in the unpolymerized pool of tubulin in KB-31 cell lysates; endogenous in cells; host or cells: KB-31 human epidermoid carcinoma cells (intact cells or hypotonic lysates)
Experimental: (§1) Drug-induced changes in the ratios between unpolymerized and polymerized tubulin in intact and lysed cells, respectively, are assessed basically as described (Giannakakou et al, Int. J. Cancer 75: 57-63 (1998)). Briefly, for the assessment of cellular drug effects, 2×10^5 cells are seeded in a volume of 1 ml to maximally 6 wells per 24-well plate. After incubation for 18-24 hrs at 37° C. to allow for cell attachment, test substances are added to the cell culture medium to achieve the desired concentrations, followed by incubation of the cells for 2 hrs at 37° C. Final vehicle concentration is 1%. One plate at a time is then transferred to a dimmed tissue-culture hood and cells are washed twice with 1 ml of room-temperature phosphate-buffered saline lacking Ca^++ and Mg^++ (PBS/O). After careful removal of remaining PBS/O, 100 μl of room-temperature Hypotonic Lysis Buffer A (HLB/A: 20 mM Tris-HCl (pH 6.8), 1 mM Mg2Cl, 2 mM EGTA, 2 mM Pefabloc, 1 mM benzamidine, 10 μg/ml aprotinin, 10 μg/ml leupeptin, 0.5% Nonidet P-40) is added and plates are wrapped in aluminum foil to minimize artifacts due to light-driven tubulin polymerization. Following incubation for exactly 5 min at 37° C., cells are harvested by scraping and transferred to a room-temperature eppendorf tube. Harvested wells are washed once with 100 μl room temperature HLB/A and pooled with the corresponding initial samples. Tubes are vortexed for 5 seconds to aid cell lysis, followed by centrifugation for 10 min at room-temperature in a table-top centrifuge at 12′000×g to separate microtubules (pellet) from unpolymerized tubulin (supernatant). The supernatant is then carefully transferred to a fresh eppendorf tube and stored on ice until further processed. Meanwhile, the pelleted material is resuspended in 200 μl room-temperature Resuspension Buffer (RSB: 10 mM Tris-HCl (pH 7.5), 1.5 mM Mg2Cl, 2 mM EGTA, 1 mM Pefabloc, 1 mM benzamidine, 10 μg/ml aprotinin, 10 μg/ml leupeptin, 0.5% Nonidet P-40). Solubilization of the pellet is aided by placing the eppendorf tube for 30 seconds in a sonicator waterbath. […]

[1] = target: T2, tubulin in 298/D4/40 cells (Homo sapiens, UniProt P07437, T274P); test: Cell-based tubulin polymerization assay; conditions: 2 hours, up to 1000 nM
T2 construct: endogenous in cells; host or cells: 297/C5/0 and 298/D4/40 sublines of KB-31 (intact cells or hypotonic lysates)
T2 sequence (P07437 whole entry T274P): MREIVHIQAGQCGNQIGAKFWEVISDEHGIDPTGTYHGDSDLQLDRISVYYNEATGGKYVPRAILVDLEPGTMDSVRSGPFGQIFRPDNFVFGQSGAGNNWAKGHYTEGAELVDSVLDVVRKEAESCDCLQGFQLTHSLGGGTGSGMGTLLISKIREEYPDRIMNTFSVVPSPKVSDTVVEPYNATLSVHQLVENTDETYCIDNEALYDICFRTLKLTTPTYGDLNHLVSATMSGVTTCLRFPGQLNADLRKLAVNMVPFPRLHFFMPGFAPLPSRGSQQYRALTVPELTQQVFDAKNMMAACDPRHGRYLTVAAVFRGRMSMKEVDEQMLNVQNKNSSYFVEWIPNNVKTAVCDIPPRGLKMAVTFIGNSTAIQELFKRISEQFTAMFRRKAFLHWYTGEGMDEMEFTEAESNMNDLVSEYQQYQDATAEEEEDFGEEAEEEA
T2 sequence (P68363 whole entry partner): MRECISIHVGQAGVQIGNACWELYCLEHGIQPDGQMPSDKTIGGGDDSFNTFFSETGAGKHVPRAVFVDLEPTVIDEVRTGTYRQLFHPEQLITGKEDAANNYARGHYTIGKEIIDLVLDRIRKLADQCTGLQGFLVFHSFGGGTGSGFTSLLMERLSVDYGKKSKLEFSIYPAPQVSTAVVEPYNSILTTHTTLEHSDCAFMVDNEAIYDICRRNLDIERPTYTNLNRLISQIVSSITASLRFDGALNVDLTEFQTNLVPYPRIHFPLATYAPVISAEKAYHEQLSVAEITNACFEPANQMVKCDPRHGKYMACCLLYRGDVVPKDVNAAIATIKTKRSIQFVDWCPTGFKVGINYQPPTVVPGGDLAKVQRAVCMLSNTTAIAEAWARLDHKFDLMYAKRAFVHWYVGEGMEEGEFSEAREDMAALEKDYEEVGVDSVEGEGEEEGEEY
Experimental: as §1

[2] = target: T3, tubulin in 297/C5/0 cells (Homo sapiens, UniProt P07437, T274P); test: Cell-based tubulin polymerization assay; conditions: 2 hours, 0-1000 nM, vs KB-31
T3 construct: endogenous in cells; host or cells: 297/C5/0 and 298/D4/40 sublines of KB-31 (intact cells or hypotonic lysates)
T3 sequence (P07437 whole entry T274P): as the sequence (P07437 whole entry T274P) above
T3 sequence (P68363 whole entry partner): as the sequence (P68363 whole entry partner) above
Experimental: as §1

297/C5/0 cells = type: cell-based, human; conditions: 297/C5/0 (EpoA selected), 72 hrs, average of three experiments
Experimental: (§2) Anti-proliferative assays are performed basically as described (Meyer et al., Int. J. Cancer 43:851 (1989)). Briefly, cells are seeded at 1.5×10^3 cells/well into 96-well microtiter plates and allowed to adhere by incubation overnight. Compounds are added in serial dilutions on day 1. The plates are then incubated for an additional 3 days, after which the cells are fixed with 3.3% v/v glutaraldehyde, washed with water and stained with 0.05% w/v methylene blue according to conventional methods. After washing, the dye is eluted with 3% HCl and the optical density measured at 665 nm with a SpectraMax Plus (Molecular Devices, Sunnyvale, Calif.) according to manufacturers instructions. IC50 values are determined by mathematical curve-fitting using the SoftPro2.6.1 program (Molecular Devices, Sunnyvale, Calif.) using the formula (OD treated−OD start)/(OD control−OD start)×100. […] IC50 determinations with the cell line 298/D4/40 are performed in the presence of 40 nM epothilone A.
(§3) Data in Table 4 are gathered according to the following methods: Cells (1×10^3) are seeded in 96-well plates and allowed to adhere for 24 hrs. Compounds are then added as two-fold serial dilutions and incubation continued for an additional 72 hrs. Cell numbers at the beginning and at the end of the experiment are estimated by methylene blue staining of cellular protein mass according to conventional methods. The net mass increase of vehicle-treated cells is set as 100% growth. The IC50 is determined as the drug concentration that leads to half-maximal growth inhibition compared to the control. The resistance factor (RF) for a particular drug is calculated by dividing the IC50 determined on the resistant cell line by that determined on the parental KB-31 cells. Data are presented as average±standard deviation (SD) of three separate experiments, except na=not applicable (n<3). Colchicine-selected KB-8511 cells overexpressing P-glycoprotein served as a reference for the classical multi-drug-resistant phenotype.

315/sc5.9 cells = type: cell-based, human
Experimental: as §2, §3

298/D4/40 cells = type: cell-based, human; conditions: 298/D4/40 (EpoA selected), 72 hrs, in the presence of 40 nM epothilone A
Experimental: as §2, §3

T1 sequence (P68363 whole entry): as the sequence (P68363 whole entry partner) above
T1 sequence (P07437 whole entry): as the sequence (P07437 whole entry T274P) above, with P274T counted along it

In the case of `C/C(=C\c1csc(C)n1)[C@@H]1C[C@@H]2O[C@@H]2CCC[C@H](C)[C@H](O)[C@@H](C)C(=O)C(C)(C)[C@@H](O)CC(=O)O1` [Epothilone A, epothilone A], the “unpolymerized tubulin in intact cells” value (tubulin in KB-31 cells) is reported as “dose-dependent decrease in the unpolymerized pool of tubulin”, the “epothilone A-mediated tubulin polymerization” value [1] is reported as “completely refractory” and the “drug concentrations required to decrease the unpolymerized tubulin fraction” value [2] is reported as “significantly higher”. For the same compound, the “RF (resistance factor: IC50 resistant cell line / IC50 parental KB-31)” value (297/C5/0 cells) was 44.7, the “RF (resistance factor: IC50 resistant cell line / IC50 parental KB-31)” value (315/sc5.9 cells; 315/sc5.9 (EpoB selected), 72 hrs, average of three experiments) was 1.2 and the “resistance profile in words” value (315/sc5.9 cells; 315/sc5.9 vs parental KB-31) was “marginal cross-resistance”. For the same compound, the “RF (resistance factor: IC50 resistant cell line / IC50 parental KB-31)” value (298/D4/40 cells) was 71.4.
